Experimental data taken from patent publication US9840712B2, “CD133 aptamers for detection of cancer stem cells” (DEAKIN UNIVERSITY, priority 2012, dated 2017).
pKd: −log10 of the molar value. Like-named read-outs stand apart in the source and are kept apart here. In the oligonucleotide strings, read from the 5' end, every base follows the letter of its sugar. An asterisk marks phosphorothioate; unmarked linkages are phosphodiester. Other units and linkages are bracketed, terminal groups are in braces. A string of capitals states the bases alone. r = 2'-OH (RNA); f = 2'-fluoro

Experiments:
[1] = tested on: colon cancer cells (HT29); conditions: 1 μM; for Tumoursphere formation after treatment: 3 days post-treatment
[2] = target: T1, CD133 expressed on Hep3B cells (Homo sapiens, UniProt O43490); assay: Aptamer dissociation constant by flow cytometry, Hep3B cells; conditions: Hep3B cells (CD133-positive); binding at 37° C. for 30 min
T1 construct: determined using CD133 positive (HT-29 and Hep3B) and CD133 negative cell lines (T98G and HEK293T); host or cells: Hep3B
T1 sequence (O43490 20-865): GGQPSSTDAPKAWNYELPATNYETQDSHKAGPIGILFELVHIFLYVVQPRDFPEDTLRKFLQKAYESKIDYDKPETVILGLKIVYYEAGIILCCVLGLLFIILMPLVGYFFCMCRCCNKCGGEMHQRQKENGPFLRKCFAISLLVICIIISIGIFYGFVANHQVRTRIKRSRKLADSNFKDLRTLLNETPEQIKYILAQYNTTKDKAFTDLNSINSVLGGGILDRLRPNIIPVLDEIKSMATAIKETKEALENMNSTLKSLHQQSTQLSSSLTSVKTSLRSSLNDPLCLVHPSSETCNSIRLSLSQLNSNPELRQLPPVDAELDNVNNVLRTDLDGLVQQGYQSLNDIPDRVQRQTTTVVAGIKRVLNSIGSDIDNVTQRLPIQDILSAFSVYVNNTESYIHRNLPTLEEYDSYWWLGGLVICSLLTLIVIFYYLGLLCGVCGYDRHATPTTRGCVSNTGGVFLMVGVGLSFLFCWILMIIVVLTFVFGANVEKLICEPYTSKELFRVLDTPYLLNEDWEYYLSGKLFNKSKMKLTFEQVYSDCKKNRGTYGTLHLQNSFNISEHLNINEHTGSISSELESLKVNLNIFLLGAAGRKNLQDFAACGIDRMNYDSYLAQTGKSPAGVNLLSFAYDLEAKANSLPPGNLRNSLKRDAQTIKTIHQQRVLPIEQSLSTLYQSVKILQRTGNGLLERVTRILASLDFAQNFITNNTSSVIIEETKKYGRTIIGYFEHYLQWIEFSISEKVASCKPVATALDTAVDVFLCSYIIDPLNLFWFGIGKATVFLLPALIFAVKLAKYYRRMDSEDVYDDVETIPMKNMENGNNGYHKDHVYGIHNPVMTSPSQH
Method: (§1) Cells were harvested at 80% confluence with trypsin digestion and resuspended in washing buffer (DPBS with 2.5 mM MgCl2) and enumerated. Following centrifugation (1000×g for 5 min), the cell pellet was resuspended in binding buffer (DPBS supplemented with 5 mM MgCl2, 0.1 mg/ml tRNA, 0.1 mg/ml salmon sperm DNA) and diluted to 1×10^6/mL.
(§2) The dissociation constant (Kd) of successful 2′-fluoropyrimidine RNA aptamer species to native CD133 expressed on the cell surface was determined using flow cytometry. […] The mean fluorescence intensity (MFI) of the unselected library was subtracted from that of the aptamer-target cell to generate the MFI of specific binding. The Kd for each aptamer was determined by Scatchard analysis according to the equation: [Bound aptamer]/[aptamer]=−(1/Kd)×[bound aptamer]+([T]tot/Kd) where [T]tot represents the total target concentration. […]
(§3) To generate the truncated aptamers, the sense and antisense DNA oligonucleotides of desired sequences were synthesised. […] The binding affinities of these two aptamers and a negative control aptamer was determined using CD133 positive (HT-29 and Hep3B) and CD133 negative cell lines (T98G and HEK293T). […]

[3] = tested on: CD133-negative T98G cells; assay: Aptamer dissociation constant by flow cytometry, T98G cells (specificity); parameters: species or system human; conditions: binding at 37° C. for 30 min
Method: as §1, §2, §3

[4] = tested on: CD133-negative HEK293T cells; assay: Aptamer dissociation constant by flow cytometry, HEK293T cells (specificity); parameters: species or system human; conditions: binding at 37° C. for 30 min
Method: as §1, §2, §3

[5] = target: T2, CD133 expressed on HT-29 cells (Homo sapiens, UniProt O43490); assay: Aptamer dissociation constant by flow cytometry, HT-29 cells; conditions: HT-29 cells (CD133-positive); binding at 37° C. for 30 min
T2 construct: determined using CD133 positive (HT-29 and Hep3B) and CD133 negative cell lines (T98G and HEK293T); host or cells: HT-29
T2 sequence (O43490 20-865): T1 sequence (O43490 20-865)
Method: as §1, §2, §3

| Compound | Tumoursphere formation after treatment ([1]; 10 cells/well) | Tumoursphere formation after treatment ([1]; 50 cells/well) | inhibition of tumoursphere formation (in words) ([1]; 100 cells/well) | Tumoursphere formation after treatment ([1]; 100 cells/well) | pKd [2] | pKd [3] | pKd [4] | pKd [5] |
| --- | --- | --- | --- | --- | --- | --- | --- | --- |
| COc1cccc2c1C(=O)c1c(O)c3c(c(O)c1C2=O)C[C@@](O)(C(=O)CO)C[C@@H]3O[C@H]1C[C@H](N)[C@H](O)[C@H](C)O1 [Doxorubicin, doxorubicin] | 5/5 | 5/5 | no effect | 5/5 |  |  |  |  |
| CD133-1-2-2: 15 mer 2′-F-pyrimidine RNA aptamer, 5′-CC CUC CUA CAU AGG G-3′ (SEQ ID NO:1) (fCfCfCfUfCfCfUrAfCrAfUrArGrGrG; further chemistry not given here) |  |  |  |  | 7.49 | 3.56 | 3.92 | 7.09 |
| CD133-2-1: 19 mer 2′-F-pyrimidine RNA aptamer, 5′-CAGAACGUAUACUAUUCUG-3′ (SEQ ID NO:6) (fCrArGrArAfCrGfUrAfUrAfCfUrAfUfUfCfUrG; further chemistry not given here) |  |  |  |  | 7.28 | 5.32 | 2.76 | 6.84 |
